These results are taken from PubChem BioAssay (NCI).

SMILES strings stand for the structures.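 Five concentrations, 48 hours, 96-well plates. The concentration for full growth arrest is given as TGI.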

Some test systems named below: DLD-1 colon; DMS 114 small cell lung; DMS 273 small cell lung; KM20L2 colon; M19-MEL melanoma; NCI-H460 lung; NCI-H522 lung; RPMI-8226 leukemia; RXF-631 renal; SK-MEL-28 melanoma; SNB-78 CNS; XF 498 CNS; HOP-18 NSCLC; LXFL 529 NSCLC; NCI/ADR-RES ovarian.
Holding throughout (assay): growth of human tumour cells (NCI), 48 h

With `O=C(O)/C=C/n1c2ccccc2c(=O)c2ccccc21`, the TGI with DLD-1 colon, in the test on DMS 114 small cell lung, in the test on DMS 273 small cell lung, in the test with KM20L2 colon, in the test with M19-MEL melanoma and in the test with NCI-H460 lung was greater than 100 µM each time. Further, the TGI with NCI-H522 lung, in the test with RPMI-8226 leukemia, in the test with RXF-631 renal, with SK-MEL-28 melanoma, with SNB-78 CNS and with XF 498 CNS was greater than 100 µM in each case.

As to `COc1ccc(N2C(=O)C3c4[nH]c5ccc(OC)cc5c4C4CCC(C(C)(C)C)CC4C3C2=O)cc1` (stereo unspecified), the TGI was greater than 100 µM with DLD-1 colon; greater than 100 µM with DMS 114 small cell lung; 40.1 µM with DMS 273 small cell lung; greater than 100 µM in the test on HOP-18 NSCLC; greater than 100 µM in the test with KM20L2 colon; 65.2 µM in the test with LXFL 529 NSCLC. Moreover, the TGI in the test on M19-MEL melanoma is greater than 100 µM; in the test with NCI-H460 lung it was greater than 100 µM; with NCI-H522 lung it was 89.3 µM; in the test on RPMI-8226 leukemia, greater than 100 µM; in the test on SK-MEL-28 melanoma it was greater than 100 µM; in the test with SNB-78 CNS, 45.3 µM. For the same compound, the TGI in the test on XF 498 CNS was greater than 100 µM.

With `C/C(=N\NS(=O)(=O)c1ccc(C)cc1)C(CN1CCOCC1)C(c1ccccc1)c1c(O)c2ccccc2oc1=O` (stereo unspecified), the TGI with DLD-1 colon, with HOP-18 NSCLC, in the test with KM20L2 colon, with LXFL 529 NSCLC, with M19-MEL melanoma and with NCI-H460 lung was greater than 100 µM throughout. Also, the TGI in the test on NCI-H522 lung, with RPMI-8226 leukemia, in the test on RXF-631 renal, with SNB-78 CNS and in the test with XF 498 CNS was greater than 100 µM throughout.

Regarding `O=S1(=O)OCCOS(=O)(=O)C1I`, the TGI in the test with DLD-1 colon, with DMS 114 small cell lung, with DMS 273 small cell lung, in the test on LXFL 529 NSCLC, in the test with M19-MEL melanoma and with NCI-H522 lung was greater than 100 µM throughout. The TGI with RPMI-8226 leukemia, in the test with RXF-631 renal, in the test with SK-MEL-28 melanoma, with SNB-78 CNS and in the test on XF 498 CNS was greater than 100 µM each time.

With `C=CCc1cc(-c2cc(CC=C)c(O)c(CN(CCCl)CCCl)c2)cc(CN(CCCl)CCCl)c1O`, the TGI with DLD-1 colon amounted to 36.2 µM; in the test on DMS 273 small cell lung it was 30.3 µM; in the test on HOP-18 NSCLC, 67 µM; with KM20L2 colon, 35.4 µM; in the test on LXFL 529 NSCLC, 29.7 µM; in the test with M19-MEL melanoma it was 34.7 µM. Besides, the TGI in the test on NCI-H460 lung is 29.1 µM; with NCI-H522 lung, 27.3 µM; in the test with NCI/ADR-RES ovarian, 78.4 µM; in the test with RPMI-8226 leukemia, greater than 100 µM; in the test on RXF-631 renal it was 39.3 µM; in the test with SK-MEL-28 melanoma, 40.2 µM. Moreover, the TGI in the test on SNB-78 CNS is greater than 100 µM.

As to `CN(C)c1ccc(-c2cc(=O)c3cc4c(cc3[nH]2)OCO4)cc1`, the TGI with DLD-1 colon, in the test on DMS 114 small cell lung, with DMS 273 small cell lung, in the test on KM20L2 colon, in the test with LXFL 529 NSCLC and in the test on M19-MEL melanoma was greater than 100 µM each time. Also, the TGI with NCI-H460 lung, in the test with RPMI-8226 leukemia, with RXF-631 renal, in the test on SK-MEL-28 melanoma and with XF 498 CNS was greater than 100 µM throughout.
